Measurements taken from patent publication US20160320408A1, “METHODS OF T CELL EPITOPE PROFILING, MAKING T CELL COMPOSITIONS, AND TREATING DISEASES” (priority 2013, published 2016).

Experiments:
Type in all cases: cell-based, human
[1] = tested on: PBMC from a healthy donor
[2] = tested on: PBMC from a healthy donor; remark: listed apart in the source
donor cells (PBMC) = tested on: donor cells (PBMC)

For DIKNDLYEKTLNDYKAIANK [TT1], the “IFNγ over a positivity threshold set at 2.5-fold above the negative control (no peptide) cultures” value [1] was 0 pg/mL.

NLVPMVATV [CMVpp65] was tested, and the “detection of IFNγ secreting T-cells, direct ex vivo ELISpot (in words)” value [2] was “readily detectable”.

For IDKISDVSTIVPYIGPALNI [TT4], the “IFNγ response (in words)” value [1] was “only one operator (HK) detecting a robust response” and the “generation of peptide-reactive T-cell line (in words)” value (donor cells (PBMC)) was “successfully generated”.

With IVVYNLQSKITLPNDRTTPV [TT2] the “IFNγ over a positivity threshold set at 2.5-fold above the negative control (no peptide) cultures” value [1] was 0 pg/mL.
